Data: patent publication US5789541A, “Compounds for inhibition of proteolysis” (President and Fellows of Harvard College, priority 1995, dated 1998)
Where two headings read alike, the source gives them in different places. Non-standard residues stand in square brackets, D forms with d. No end group written: not given here. *: point of attachment. Farnesyl = CC(C)=CCC/C(C)=C/CC/C(C)=C/C*

Key:
Type in all cases: biochemical
[1] = test system: protease of bovine liver microsomal membranes; assay: Substrate kinetics/activity: formation of N-[3H]-AFC from peptide substrates by calf liver microsomal protease; set-up: key to substrate activity (Table 1, in words): Analogs referred to as inactive did not show detectable activity as substrate when used at concentration of 10mM and prolonged incubation time (16 hours); weakly active: Where marginal activity is noted, detectable activity is observed under prolonged incubation periods, but the activity is <5% that observer, with AFC-V-I-S; conditions: for substrate activity for the protease (in words): calf liver microsomal preparation; for substrate activity (Table 1, in words): 10mM, prolonged incubation time (16 hours)
Method: Briefly, N-[^3 H]-Acetyl-S-farnesyl-L-cys-L-val-L-ile-L-ser or N-[^3 H]acetyl-S-farnesyl-(SEQ ID NO: 1) at a concentration of 10 μM was incubated with bovine liver microsomal membranes (preparation described below). Periodically, 50 μL aliquots were withdrawn from the incubation mixture and the reaction was quenched with 500μL of chloroform/methanol (1:1, v/v). N-[^3 H]-AFC was extracted after thoroughly mixing the mixture for 1 minute and extracting with chloroform. Phase separation was achieved by adding 500μL of 1M citric acid. The chloroform layer was evaporated under nitrogen, resuspended in hexane/isopropanol/TFA (85:15:0.1), and authentic AFC standard was added for detection at 210 nm. The sample was injected on a silica HPLC column (Dynamax 60A, Rainin, Woburn, Mass.) and eluted with the same solvent. Radioactivity was counted with an on-line Berthold (Nashua, N.H.) LB 506-C HPLC radioactivity monitor.
(§1) Measurement of Proteolytic Activity Bovine liver microsomes were prepared according to Walter et al. (Meth. Enzym. 96:84, 1983). Kinetic measurements were performed by incubating 0.2 mg/mL protein with peptide substrates in 200 mM HEPES buffer containing 100 mM NaCl and 5 mM MgCl2 at pH 7.4, all in a final volume of 50 μL. The peptide substrates were added in DMSO to a final concentration of 4% (v/v) at 37°. The enzymatic reaction was quenched at the appropriate time by the addition of 0.5 mL of chloroform/methanol (1/1, v/v). Phase separation was achieved by adding 0.5 mL 1M citric acid. The chloroform layer was separated and evaporated under nitrogen and the residue was dissolved in n-hexane/2-propanol/TFA containing cold AFC. The formation of the product ^3 H-AFC was followed by HPLC analysis at 210 nm according to Perez-Sala et al. (Proc. Nat'l Acad. Sci. USA 88:3043, 1991). The samples were injected onto a normal phase HPLC column (Dynamax 60, Rainin, Woburn, Mass.) connected to a model LB 506-C on-line radioactivity monitor (Berthold, Nashua, N.H.). The column was eluted with n-hexane/2-propanol/TFA [85:15:0.1 (v/v/v)] at 1.5 mL/min.
For these experiments the substrates were dissolved in DMSC and incubated with calf liver microsomal membranes (0.2 mg of protein/mL) (Walter et al., supra) as described above. The amount of radioactive product was determined as described above. The reaction was quenched with 500 μL of CHCl3 /MeOH (1:1, v/v), and the radioactive N-terminal amino acid, i.e. N-[^3 H]AFC, was extracted after thoroughly agitating this mixture. Phase separation was achieved by adding 500 μL of 1M citric acid. After the chloroform layer was evaporated under nitrogen the residue was resuspended in n-hexane/isopropanol/TFA (90:10:0.01) and non-radioactive AFC was added as a standard for UV detection (210 nm). The sample was injected on a normal-phase HPLC column (Dynamax 60A, Rainin), and elution was performed with the same solvent at flow rate l.5 ml/min. Radioactivity was counted with an on-line Berthold (Nashua, NH) LB 506-C HPLC radioactivity monitor. The limit of efficiency of this assay was 3× the background counts/min (~150 cpm), which permits detection of products from substrates whose activities are 0.4% of the Vmax of AFC-Val-Ile-Ser (SEQ ID NO: 1) (1.13 pmol/min/mg). The retention times for AGC, AFC, and AGGC are 7.58, 7.26, and 7.00 min respectively, and for AGC-Val-Ile, AFC-Val-Ile, and AGGC-Val-Ile, they are 5.48, 6.54, and 5.08 min respectively.

[2] = test system: protease of bovine liver microsomal membranes; assay: Inhibition of proteolysis of [3H]-AFC-val-ile-ser by calf liver microsomal protease; conditions: 4 μM [3H]-AFC-val-ile-ser substrate; 20 μM of the dipeptide or tripeptide
Method: as §1
As expected, the proteolysis of [^3 H]-AFC-val-ile-ser or N-[^3 H]-(SEQ ID NO: 1) was inhibited by the dipeptide substrate (AFC-val) and by the tripeptide substrate (AFC-val-ile). […]

[3] = test system: proteolytic enzymatic activity in dog pancreatic microsomes; assay: Proteolysis of tetrapeptide by dog pancreatic microsomes, extended incubation; conditions: extended incubation conditions
Method: A similar stereospecific proteolytic enzymatic activity was also found in dog pancreatic microsomes. Under extended incubation conditions, where 54% of the tetrapeptide substrate 1 was cleaved by these microsomes, no proteolysis of D-AFC-val-ile-ser 2 could be detectec, (<1%). […] Synthesis of N-[^3 H]-acetyl-S-all-trans-farnesyl-L-Cys-L-Val-L-Ile-L-Ser or N-[^3 H]acetyl-S-farnesyl-(SEQ ID NO: 1) A solution of N-[^3 H]-acetyl-S-all-trans-farnesyl-L-Cys-L-Val-L-Ile (1.12 μmol, 250 mCi/mmol), L-serine hydrochloride methyl ester (20 mg, 0.13 mmol), and 1-hydroxybenzotriazole hydrate (17.4 mg, 0.13 mmol) in 3 mL of DMF was cooled to 0° C. 1-(3-Dimethylamino)propyl-3-ethyl carbodiimide hydrochloride (17.2 mg, 0.09 mmol) and N-methylmorpholine (14.1 μL, 13 mg, 0.13 mmol) were added at 0° C. The mixture was stirred at 0° C. under argon for 2 hours and at room temperature for 24 hours. Water (20 mL) was added and the mixture was extracted with ethyl acetate (4×20 mL). The combined organic layer was washed with 10% HCl, saturated sodium bicarbonate, and water, dried over anhydrous magnesium sulfate, filtered, and evaporated. The residue was dissolved in 3 mL of acetonitrile and 3 mL of 10% aqueous sodium carbonate was added. The mixture was stirred at room temperature for 24 h. 10% HCl was added to adjust the pH to 2. […] Recovery of radioactivity was 28.2 μCi, 1.13×10^-4 mmol. […]

[4] = Table 1, substrate of the protease, calf liver microsomal membranes, average of two determinations ±S.D., same enzyme preparation
[5] = substrate of the protease, liver microsomal membranes, read-out: KM
[6] = Table 1, substrate of the protease, calf liver microsomal membranes, average of two determinations ±S.D., same enzyme preparation, read-out: KM

N-acetyl-S-all-trans-farnesyl-D-Cys-D-Val-L-Ile [D-D-L]
substrate activity for the protease (in words) [1]: inactive

N-[^3 H]-acetyl-S-all-trans-farnesyl-L-Cys-L-Val-D-Ile [AFC-Val-Ile (8)]
substrate activity (Table 1, in words) ([1]; Table 1): inactive | substrate activity for the protease (in words) [1]: did not have substrate activity

acetyl-S-all-trans-farnesyl-L-Cys-Val-Ile [AFC-Val-Ile (1)]
diminution in substrate cleavage [2]: approximately 50% | Vmax [1, 4]: 57.7 ± 5 pmol/min/mg | Vmax, previously measured ([1]; former measurement on a different microsome preparation from a different animal): 65.6 pmol/min/mg | Km ([1]; former measurement on a different microsome preparation from a different animal, read-out: KM, previously measured): 12.6 µM | Vmax ([1]; substrate of the protease): 58 ± 4.9 pmol/min/mg | Km [1, 5]: 9.2 ± 0.21 µM

N-[^3 H]-Acetyl-S-all-trans-geranylgeranyl-L-Cys-L-Val-L-Ile [AGGC-Val-Ile (2)]
Vmax [1, 4]: 26.20 ± 0.97 pmol/min/mg | Km [1, 6]: 4.01 ± 0.4 µM | substrate activity for the protease (in words) [1]: good substrates | Vmax ([1]; substrate of the protease): 19.35 pmol/min/mg | Km [1, 5]: 14.6 µM

N-acetyl-S-all-trans-farnesyl-L-Cys-D-Val-L-Ile [AFC-Val-Ile (7)]
substrate activity (Table 1, in words) ([1]; Table 1): inactive | substrate activity for the protease (in words) [1]: did not have substrate activity

N-[^3 H]-Acetyl-S-all-trans-geranylgeranyl-D-cys-L-Val-L-Ile [AGGC-Val-Ile (2) D-L-L]
substrate activity (Table 1, in words) ([1]; Table 1): inactive | substrate activity for the protease (in words) [1]: no measurable protease activity

N-Ac-S-all-trans-farnesyl-D-Cys-L-Val-L-Ile [AFC-Val-Ile (6)]
substrate activity (Table 1, in words) ([1]; Table 1): inactive

N-[^3 H]-acetyl-S-all-trans-farnesyl-D-Cys-L-Val-L-Ile-L-Ser [D-AFC-val-ile-ser]
tetrapeptide cleaved [3]: < 1% | substrate activity for the protease (in words) [1]: did not occur

N-acetyl-S-farnesyl-L-cysteine-L-val-L-ile-L-ser [AFC-val-ile-ser]
tetrapeptide cleaved [3]: 54% | Vmax ([1]; bovine liver microsomal membranes): 0.236 ± 0.008 nmol/min/mg protein | Km [1, 5]: 4.8 µM

N-[^3 H]-Acetyl-L-Cys-L-Val-L-Ile [Cys-Val-Ile (4)]
substrate activity (Table 1, in words) ([1]; Table 1): inactive | substrate activity for the protease (in words) [1]: Neither analog was measurably processed

CC(=O)N[C@@H](CSC/C=C(\C)CC/C=C(\C)CCC=C(C)C)C(N)=O [AFC amide]
substrate activity for the protease (in words) [1]: not a substrate

N-acetyl-S-trans-geranyl-D-Cys-L-Val-Ile [AGC-Val-Ile (3) D-L-L]
substrate activity (Table 1, in words) ([1]; Table 1): inactive | substrate activity for the protease (in words) [1]: no measurable protease activity

N-[^3 H]-Acetyl-S-thio-t-butyl-L-Cys-L-Val-L-Ile [t-butylthio-Cys-Val-Ile (5)]
substrate activity (Table 1, in words) ([1]; Table 1): inactive | substrate activity for the protease (in words) [1]: Neither analog was measurably processed

N-[^3 H]-acetyl-S-all-trans-farnesyl-L-Cys-L-Val-L-Ile-L-Met (C(Farnesyl)VIM; not fully specified (N-terminus); printed as N-[^3 H]-acetyl-S-all-trans-farnesyl-L-Cys-L-Val-L-Ile-L-Met; also: tritium label on the N-acetyl) [AFC-Val-Ile-Met (9)]
Vmax [1, 4]: 126.3 pmol/min/mg | Km [1, 6]: 2.96 ± 0.35 µM | substrate activity for the protease (in words) [1]: good substrate

N-[^3 H]-acetyl-S-all-trans-farnesyl-L-Cys-L-Val-L-Ile-D-Met ({(3H)‑acetyl}-C(Farnesyl)VI[dM]) [AFC-Val-Ile-Met (10)]
substrate activity (Table 1, in words) ([1]; Table 1): weakly active (Where marginal activity is noted, detectable activity is observed under prolonged incubation periods, but the activity is <5% that observer, with AFC-V-I-S) | substrate activity for the protease (in words) [1]: processed to some extent

N-acetyl-S-trans-geranyl-L-Cys-L-Val-L-Ile [AGC-Val-Ile (3)]
Vmax [1, 4]: 19.35 ± 1.12 pmol/min/mg | Km [1, 6]: 14.6 ± 2.14 µM | substrate activity for the protease (in words) [1]: good substrates
